These results are taken from patent US6706747B2, “Conformationally rigid bicyclic and adamantane derivatives useful as α2-adrenergic blocking agents” (Allergan, Inc., priority 1994, dated 2004).

In the assay the target is T1, HT-29(α2A) (Homo sapiens, UniProt P08913).
T1 construct: HT-29 and chinese hamster ovary (CHO) cells expressing the human α2A (CHO—C10) receptor; endogenous in cells; host or cells: HT-29
T1 sequence (P08913 1-465): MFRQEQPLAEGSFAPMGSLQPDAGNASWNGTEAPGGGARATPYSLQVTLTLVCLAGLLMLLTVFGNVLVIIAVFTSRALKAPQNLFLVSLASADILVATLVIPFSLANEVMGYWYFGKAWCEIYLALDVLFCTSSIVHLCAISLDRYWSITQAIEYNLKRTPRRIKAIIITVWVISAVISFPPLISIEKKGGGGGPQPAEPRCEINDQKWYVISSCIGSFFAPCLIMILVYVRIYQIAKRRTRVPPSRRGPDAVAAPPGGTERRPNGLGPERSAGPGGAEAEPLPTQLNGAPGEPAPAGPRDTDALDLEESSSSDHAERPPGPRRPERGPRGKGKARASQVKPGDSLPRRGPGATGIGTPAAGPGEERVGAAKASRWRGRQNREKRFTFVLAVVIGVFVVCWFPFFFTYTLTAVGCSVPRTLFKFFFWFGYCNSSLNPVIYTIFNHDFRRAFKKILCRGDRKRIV
Description: Radioligand binding, [3H]rauwolscine, HT-29 cell membranes. To be noted: values marked *: HT-29 cells, 22° C., 30 minutes. How it is done:
Cell preparation: HT-29 and chinese hamster ovary (CHO) cells expressing the human α2A (CHO—C10) receptor and CHO cells (CHO—RNG) expressing the rat α2B adrenoceptor were grown to near confluency in Dulbecco's modified Eagle's medium supplemented with 10% fetal bovine serum using standard cell culture methods. Cells were harvested by scraping and placed into cold buffer of the following composition: 50 mM Tris-HCl, 5 mM EDTA, pH 7.4). Cells were then homogenized with a Polytron homogenizer for 2×10 secs at setting # 7, arid centrifuged for 20 minutes at 49,000×g. The pellet fraction was washed (resuspended in Tris-HCl, pH 8 buffer and centrifuged for 15-20 minutes at 49,000×g) 2 times and stored at −100° C. until binding assay.
Binding studies: The radioligands [^3H]rauwolscine (specific activity 80 Ci/mmol) and [^3H]prazosin (specific activity 76 Ci/mmol) were obtained from New England Nuclear, Boston, Mass. Frozen membrane pellet was resuspended in 25 mM glycine/glycine, pH 7.4 and incubated with radioligand under the following conditions: CHO—C10, CHO—RNG, HT-29-[^3H]rauwolscine, 22° C., 30 minutes; RKC-[^3H]rauwolscine, 0° C., 120 minutes; and, HCC-[^3H]prazosin, 22° C., 30 minutes in a final volume of 500 μl. At the end of the incubation period, the samples were filtered through glass fiber filters (Whatman GF/B) in a 96 well cell harvester and rapidly washed four times with 4 ml of ice-cold 50 mM, Tris-HCl buffer. The filters were then oven dried and transferred to scintillation vials containing 5 ml of Beckman's Ready Protein® scintillation cocktail for counting. Specific binding defined by 10 μM phentolamine for competition studies were as follows: 0.3 nM [^3H]rauwolscine—CHO—C10 99%; 0.4 nM[^3H]rauwolscine —CHO—RNG 99%; 0.7;nM [^3H]rauwolscine—HT-29 90%; 1 nm [^3]rauwolscine—RKC 92%, and 0.3 nM [^3H]prazosin—HCC 87%. Protein concentrations were determined with a protein assay kit from Bio Rad. Binding isotherms, equilibrium dissociation and affinity constants were analyzed and determined by the non-linear least squares curve fitting programs AccuFit Competition/Saturation by Beckman.
Binding studies: The radioligands [^3H]rauwolscine (specific activity 80 Ci/mmol), [^3H]prazosin (specific activity 76 Ci/mmol) and [^3H]brimonidine (UK-14,304; specific activity 63 Ci/mmol) were obtained from New England Nuclear, Boston, Mass. Frozen membrane pellet was resuspended either 50 mM tris, 2 mM EGTA, 1 mM MgCl2, pH7.5 (RbKC, RbICB-[^3H]brimonidine); 50 mM tris, 0.5 mM EDTA, 5 mM NaCl, pH 7.7 (RbICB-[^3H]rauwolscine); 25 mM glycine/glycine, pH 7.4 (RtKC, CHO—C10, CH—RNG, HT-29, HCC) or 50 mM tris, 0.1 mM MnCl2, pH7.7 (RtCC). Membrane protein homogenate (75-200 μg) was incubated with radioligand under the following conditions: RbKC and RbICB-[^3H]rauwolscine, 22° C., 45 minutes; RtCC and RbICB-[^3H]brimondine, 22° C., 90 minutes; CHO—C10, CHO—RNG and HT-29-[^3H]rauwolscine, 22° C., 30 minutes; HCC—[^3H]prazosin, 22° C., 30 minutes; and, in a final volume of 250 or 500 μl. At the end of the incubation period, the samples were filtered through glass fiber filters (Whatman GF/B) in a 24 or 96 well cell harvester and rapidly washed four times with 4 mls of iced-cold 50 mM Tris-HCl buffer. The filters were then oven dried and transferred to scintillation vials containing 10 mls of, Beckman's Ready Protein® scintillation cocktail for counting. […] Protein concentrations were determined with a protein assay kit from Bio Rad. […]

For the molecule `CCCCNC1=NCCO1`, the Ki is 150 nM.

The molecule `CC(C)C1C2CCC(C2)C1NC1=NCCO1` (centres unmarked) displayed a Ki of 43 nM.

`CCCCC1C2CCC(C2)C1NC1=NCCO1` (centres unmarked): the Ki came to 29 nM.

`CCCCC1C2CCC(C2)C1NC1=NCCS1` (centres unmarked) had a Ki of 58 nM.

`C1CCC(C2C3CCC(C3)C2NC2=NCCN2)CC1` (centres unmarked) came in with an inhibitory constant (Ki) of 288 nM.
